The values below come from PMC8587849, “Antimicrobial and Anticancer Application of Silver(I) Dipeptide Complexes” (Molecules, 2021).

Structures are written as SMILES. Like-named read-outs stand apart in the source and are kept apart here. Where a SMILES comes first, the peptide text is derived from it.

Experiment [1] deals with BJ-5ta. In words: MTS assay on fibroblasts. Type of experiment: cell-based. The settings on record: BJ-5ta human skin fibroblasts, 72 h. The protocol:
(§1) After 72 h of incubation, 10 µL of MTS was added to each well. […] IC50 values were calculated from MTS analyses.
(Tetrazolium dyes change colour on reduction, which living cells bring about.)

The test system of experiment [2] is BLM. In words: MTS antiproliferative assay. It counts as cell-based, human. The settings on record: BLM; MTS, 72 h. The protocol: (§2) Cells were maintained in standard conditions with an atmosphere containing 5% CO2 at 37 °C.
as §1

The test system of experiment [3] is Jurkat. Put plainly: MTS antiproliferative assay. The settings on record: 72 h. It counts as cell-based, human. The protocol:
as §2, §1

Experiment [4] relates to MDA-MB-231. In words: MTS antiproliferative assay. Type of experiment: cell-based, human. The settings on record: 72 h. The method, then: as §2, §1
The test system of experiment [5] is HCT116. Put plainly: MTS antiproliferative assay. It counts as cell-based, human. The settings on record: 72 h. The method, then:
as §2, §1

In experiment [6] the test system is MCF-7. Put plainly: MTS antiproliferative assay. Type of experiment: cell-based, human. The settings on record: 72 h. The method, then: as §1
For experiment [7], the system named is HeLa. Put plainly: MTS antiproliferative assay. Type of experiment: cell-based, human. Conditions: 72 h. The protocol:
as §1

The subject of experiment [8] is Staphylococcus epidermidis CCM 7221. In words: Antibacterial activity, macrodilution method. It counts as cell-based. Conditions: S.epidermidis; free ligands.
Description: (§3) Cultures of bacteria (in Mueller-Hinton broth, MHB) and yeasts (in Sabouraud’s growth medium, SB) were incubated under shaking (250 rpm) at 37 °C. The growth of bacteria and yeasts was evaluated by measuring the absorbance of the growing cultures (A550) until the cultures reached the stationary growth phase. […] The final concentration of DMSO never exceeded 1.0 vol. % in the control or treated samples. […] The IC50 and MIC90 with respect to MIC80 values were evaluated from toxicity curves.
Experiment [9] has as its system Candida parapsilosis ATCC 22019. Put plainly: Antifungal activity (yeast), macrodilution method. Type of experiment: cell-based. Conditions: C. parapsilosis.
Description: as §3
The subject of experiment [10] is Alternaria alternata CCM F-128. Put plainly: Antifungal activity (filamentous fungi), macrodilution on solidified PDA. Type of experiment: cell-based. The settings on record: A. alternata, read-out: IC50 and MIC100 (class symbol).
Description: (§4) Cultures of bacteria (in Mueller-Hinton broth, MHB) and yeasts (in Sabouraud’s growth medium, SB) were incubated under shaking (250 rpm) at 37 °C. The growth of bacteria and yeasts was evaluated by measuring the absorbance of the growing cultures (A550) until the cultures reached the stationary growth phase. […] During culturing, the diameters of growing fungal colonies were measured at regular intervals [71, 72]. […] The final concentration of DMSO never exceeded 1.0 vol. % in the control or treated samples. […] The IC50 and MIC90 with respect to MIC80 values were evaluated from toxicity curves.
The test system of experiment [11] is Staphylococcus aureus CCM 3953. In words: Antibacterial activity, macrodilution method. Type of experiment: cell-based. Conditions: S. aureus; free ligands.
Description: as §3
Experiment [12] relates to Candida albicans SC 5314. In words: Antifungal activity (yeast), macrodilution method. Type of experiment: cell-based. The settings on record: C. albicans.
Description: as §4
For experiment [13], the system named is Rhizopus oryzae CCM F-8284. Put plainly: Antifungal activity (filamentous fungi), macrodilution on solidified PDA. It counts as cell-based.
Description: as §4
The test system of experiment [14] is Escherichia coli (E. coli) CCM 3988. Put plainly: Antibacterial activity, macrodilution method. It counts as cell-based. Conditions: free ligands.
Description: as §3
Experiment [15] deals with methicillin-resistant Staphylococcus aureus L12. In words: Antibacterial activity, macrodilution method. Type of experiment: cell-based. The settings on record: S. aureus L12; free ligands.
Description: as §3
The test system of experiment [16] is A.flavus. In words: Antifungal activity (filamentous fungi). The settings on record: read-out: IC50 and MIC100 (class symbol). It counts as cell-based.
Description: as §4
Experiment [17] concerns Microsporum gypseum CCM F-8342. Put plainly: Antifungal activity (filamentous fungi), macrodilution on solidified PDA. The settings on record: M.gypseum, read-out: IC50 and MIC100 (class symbol). It counts as cell-based.
Description: as §4
The mark [18] stands for this setting: read-out: IC50 and MIC100 (class symbol).

In the case of `O=[N+]([O-])[O-].[Ag+]` [AgNO3, silver(I) nitrate], the IC50 (as a rule, the midpoint of a concentration-inhibition curve) was 24.3 µM in experiment [1]; 31.5 µM in experiment [2]; 6.6 µM in experiment [3]; 25.9 µM in experiment [4]; 21.8 µM in experiment [5]; 13.2 µM in [6]. For the same compound, the IC50 in experiment [7] was determined as 45.3 µM.

Turning to `C[C@H](N)C(=O)O` [Ala, alanine, reference compound], the “IC50 and MIC90 (class symbol)” value in experiment [8] was “N (N- not active IC50 and MIC90 values > 2 mmol.l-1)”; in experiment [11], “N (N- not active IC50 and MIC90 values > 2 mmol.l-1)”; in [14], “N (N- not active IC50 and MIC90 values > 2 mmol.l-1)”; in [15], “N (N- not active IC50 and MIC90 values > 2 mmol.l-1)”. The “IC50 and MIC80 (class symbol)” value in [9] was “N (N- not active IC50 and MIC values > 2 mmol.l-1)”; in experiment [12], “N (N- not active IC50 and MIC values > 2 mmol.l-1)”. The IC50 is greater than 2000 µM in experiment [10] (Alternaria alternata, CCMF128); greater than 2000 µM in experiment [13] (Rhizopus arrhizus, CCMF8284, read-out: IC50 and MIC100 (class symbol)); greater than 2000 µM in experiment [16] (Aspergillus flavus); greater than 2000 µM in [17] (Nannizzia gypsea, CCMF8342).

Turning to `NCC(=O)O` [Gly, glycine, reference compound], the “IC50 and MIC90 (class symbol)” value in [8] was “N (N- not active IC50 and MIC90 values > 2 mmol.l-1)”; in experiment [11] it was “N (N- not active IC50 and MIC90 values > 2 mmol.l-1)”; in experiment [14] it was “N (N- not active IC50 and MIC90 values > 2 mmol.l-1)”; in experiment [15], “N (N- not active IC50 and MIC90 values > 2 mmol.l-1)”. For the same compound, the “IC50 and MIC80 (class symbol)” value is “N (N- not active IC50 and MIC values > 2 mmol.l-1)” in experiment [9]; “N (N- not active IC50 and MIC values > 2 mmol.l-1)” in experiment [12]. Also, the IC50 in experiment [10], in experiment [13] (setting [18]), in experiment [16] and in experiment [17] was greater than 2000 µM in each case.

On to `NCC(=O)N[C@@H](CC(=O)O)C(=O)O` [H2GlyAsp, Glycyl-L-Aspartic acid, reference compound] (H-Gly-Asp-OH), for which the IC50 was greater than 300 µM in experiment [1]; greater than 300 µM in [2]; greater than 300 µM in experiment [3]; greater than 300 µM in experiment [4]; greater than 300 µM in experiment [5]; greater than 2000 µM in experiment [10]. The IC50 was greater than 2000 µM in experiment [13] (setting [18]); greater than 300 µM in experiment [6]; greater than 300 µM in [7]; greater than 2000 µM in experiment [16]; greater than 2000 µM in experiment [17]. Also, the “IC50 and MIC90 (class symbol)” value in [8] is “N (N- not active IC50 and MIC90 values > 2 mmol.l-1)”; in experiment [11] it was “N (N- not active IC50 and MIC90 values > 2 mmol.l-1)”; in [14] it was “N (N- not active IC50 and MIC90 values > 2 mmol.l-1)”; in experiment [15] it was “N (N- not active IC50 and MIC90 values > 2 mmol.l-1)”. The “IC50 and MIC80 (class symbol)” value is “N (N- not active IC50 and MIC values > 2 mmol.l-1)” in [9]; “N (N- not active IC50 and MIC values > 2 mmol.l-1)” in [12].

Turning to `C[C@H](NC(=O)CN)C(=O)O` [HGlyAla, Glycyl-L-Alanine, reference compound] (H-Gly-Ala-OH), the IC50 was greater than 300 µM in experiment [1]; greater than 300 µM in experiment [2]; greater than 300 µM in experiment [3]; greater than 300 µM in [4]; greater than 300 µM in [5]; greater than 2000 µM in experiment [10]. In addition, the IC50 in [13] (setting [18]) is greater than 2000 µM; in [6], greater than 300 µM; in experiment [7], greater than 300 µM; in experiment [16] it was greater than 2000 µM; in experiment [17], greater than 2000 µM. Further, the “IC50 and MIC90 (class symbol)” value is “N (N- not active IC50 and MIC90 values > 2 mmol.l-1)” in experiment [8]; “N (N- not active IC50 and MIC90 values > 2 mmol.l-1)” in experiment [11]; “N (N- not active IC50 and MIC90 values > 2 mmol.l-1)” in experiment [14]; “N (N- not active IC50 and MIC90 values > 2 mmol.l-1)” in [15]. For the same compound, the “IC50 and MIC80 (class symbol)” value in experiment [9] was “N (N- not active IC50 and MIC values > 2 mmol.l-1)”; in experiment [12], “N (N- not active IC50 and MIC values > 2 mmol.l-1)”.

Take `NCC(=O)NCC(=O)O` [HGlyGly, Glycyl-L-Glycine, reference compound] (H-Gly-Gly-OH): the “IC50 and MIC90 (class symbol)” value in [8] is “N (N- not active IC50 and MIC90 values > 2 mmol.l-1)”; in experiment [11], “N (N- not active IC50 and MIC90 values > 2 mmol.l-1)”; in experiment [14], “N (N- not active IC50 and MIC90 values > 2 mmol.l-1)”; in experiment [15], “N (N- not active IC50 and MIC90 values > 2 mmol.l-1)”. Besides, the “IC50 and MIC80 (class symbol)” value is “N (N- not active IC50 and MIC values > 2 mmol.l-1)” in experiment [9]; “N (N- not active IC50 and MIC values > 2 mmol.l-1)” in experiment [12]. Besides, the IC50 in [10], in experiment [13] (setting [18]), in experiment [16] and in [17] was greater than 2000 µM throughout.

Turning to `N.N.[Cl][Pt][Cl]` [cisPt, cisplatin], the IC50 in experiment [1] came to 37.9 µM; in experiment [2] it was 29.5 µM; in [3] it was 6.3 µM; in experiment [4], 7.1 µM; in experiment [5], 7.4 µM; in experiment [6], 29.7 µM. The IC50 in [7] came to 35.4 µM.
